16 molecules from patent US20240101576A1, “HETEROCYCLIC INHIBITORS OF EGFR AND/OR HER2, FOR USE IN THE TREATMENT OF CANCER” (Scorpion Therapeutics, Inc., priority 2020, published 2024) can be followed below.

What all share (type): cell-based
The target in one experiment is T1, EGFR WT (Ba/F3 cells) (Homo sapiens, UniProt P00533).
T1 construct: expressed in transfected cells; host or cells: Ba/F3 (murine pro-B cells), retroviral transduction, puromycin selection, maintained with EGF
As to the kind of experiment: Inhibitor activity on EGFR-dependent cell growth (CellTiter-Glo, 72 h), Ba/F3 EGFR WT. The settings on record: read-out: BaF3 WT IC50. An excerpt: (§1) Example A. Inhibitor Activity on EGFR-Dependent Cell Growth
(§2) Cell lines are generated by transducing Ba/F3 cells with retroviruses containing vectors with EGFR WT, EGFR L858R, EGFR exon 19del, EGFR L858R/C797S, EGFR exon 20 NPG Ins D770_N771, EGFR exon 20 ASV Ins V769_D770, EGFR exon 20 SVD Ins D770_N771, or EGFR exon 20 FQEA Ins A763_V764 genes and a puromycin selection marker. Transduced cells are selected with puromycin for 7 days and are then be transferred into culture media without Interleukin 3 (IL3). EGFR WT cells are maintained with supplemental EGF. Surviving cells are confirmed to express EGFR by Western blot and maintained as a pool. The IC50 date were included in Table 6 and Table 7.
(§3) 1.1 Cells are harvested from flask into cell culture medium and the cell number counted.
(§4) 1.2 Cells are diluted with culture medium to the desired density and 40 μL of cell suspension is added into each well of 384-well cell culture plate and the seeding density is 800 (FQEA, exon 19del), 600 (WT, NPG, L858R/C797S), or 400 (ASV, SVD, L858R) cells/well.
(§5) 2 Compound Preparation and Treatment
(§6) 2.1 Test compounds are dissolved to 10 mM in a DMSO stock solution. 45 μL of stock solution is transferred to a 384 polypropylene plate (pp-plate). Perform 3-fold, 10-point dilution via transferring 15 μL compound into 30 μL DMSO using a TECAN (EVO200) liquid handler.
(§7) 2.2 Spin plates at room temperature at 1,000 RPM for 1 minute.
(§8) 2.3 Transfer 120 nL of diluted compound from compound source plate into the cell plate.
(§9) 2.4 After compound treatment for 72 hours, perform CTG detection for compound treatment plates as described in “Detection” section.
(§10) 3.1 Plates are removed from incubators and equilibrated at room temperature for 15 minutes.
(§11) 3.2 Thaw the CellTiter Glo reagents and allow to equilibrate to room temperature before the experiment.
(§12) 3.3 Add 40 μL of CellTiter-Glo reagent into each well (at 1:1 to culture medium). Then place the plates at room temperature for 30 min followed by reading on EnVision.
(§13) 4.1 Inhibition activity is calculated following the formula below:
(§14) % Inhibition=100×(LumHC−LumSample)/(LumHC−LumLC) • where HC is obtained from cells treated with 0.1% DMSO only; and LC is obtained from culture medium only.
(§15) 4.2 2. Calculate the IC50 by fitting the Curve using Xlfit (v5.3.1.3), equation 201.
(§16) Y=Bottom+(Top−Bottom)/(1+10^((Log IC50−X)*HillSlope))

Experiment [1] concerns the target T2, EGFR exon 20 ASV Ins V769_D770 (Ba/F3 cells) (Homo sapiens, UniProt P00533, INS769ASV).
T2 construct: expressed in transfected cells; host or cells: Ba/F3 (murine pro-B cells), retroviral transduction, puromycin selection, IL3-independent pool
Briefly: Inhibitor activity on EGFR-dependent cell growth (CellTiter-Glo, 72 h), Ba/F3 EGFR exon 20 ASV Ins. Conditions: read-out: BaF3 ASV IC50.
Text: as §1, §2, §3, §4, §5, §6, §7, §8, §9, §10, §11, §12, §13, §14, §15, §16

Experiment [2] concerns the target T3, EGFR exon 20 FQEA Ins A763_V764 (Ba/F3 cells) (Homo sapiens, UniProt P00533, INS763FQEA).
T3 construct: expressed in transfected cells; host or cells: Ba/F3 (murine pro-B cells), retroviral transduction, puromycin selection, IL3-independent pool
Briefly: Inhibitor activity on EGFR-dependent cell growth (CellTiter-Glo, 72 h), Ba/F3 EGFR exon 20 FQEA Ins. The settings on record: read-out: BaF3 FQEA IC50.
Text: as §1, §2, §3, §4, §5, §6, §7, §8, §9, §10, §11, §12, §13, §14, §15, §16
For orientation: Cellular ATP, detected with luciferase, serves as a proxy for viable cell number.

Experiment [3] has as its target T4, EGFR exon 20 SVD Ins D770_N771 (Ba/F3 cells) (Homo sapiens, UniProt P00533, INS770SVD).
T4 construct: expressed in transfected cells; host or cells: Ba/F3 (murine pro-B cells), retroviral transduction, puromycin selection, IL3-independent pool
Briefly: Inhibitor activity on EGFR-dependent cell growth (CellTiter-Glo, 72 h), Ba/F3 EGFR exon 20 SVD Ins. The settings on record: read-out: BaF3 SVD IC50.
Text: as §1, §2, §3, §4, §5, §6, §7, §8, §9, §10, §11, §12, §13, §14, §15, §16

T1 sequence (P00533 25-1210): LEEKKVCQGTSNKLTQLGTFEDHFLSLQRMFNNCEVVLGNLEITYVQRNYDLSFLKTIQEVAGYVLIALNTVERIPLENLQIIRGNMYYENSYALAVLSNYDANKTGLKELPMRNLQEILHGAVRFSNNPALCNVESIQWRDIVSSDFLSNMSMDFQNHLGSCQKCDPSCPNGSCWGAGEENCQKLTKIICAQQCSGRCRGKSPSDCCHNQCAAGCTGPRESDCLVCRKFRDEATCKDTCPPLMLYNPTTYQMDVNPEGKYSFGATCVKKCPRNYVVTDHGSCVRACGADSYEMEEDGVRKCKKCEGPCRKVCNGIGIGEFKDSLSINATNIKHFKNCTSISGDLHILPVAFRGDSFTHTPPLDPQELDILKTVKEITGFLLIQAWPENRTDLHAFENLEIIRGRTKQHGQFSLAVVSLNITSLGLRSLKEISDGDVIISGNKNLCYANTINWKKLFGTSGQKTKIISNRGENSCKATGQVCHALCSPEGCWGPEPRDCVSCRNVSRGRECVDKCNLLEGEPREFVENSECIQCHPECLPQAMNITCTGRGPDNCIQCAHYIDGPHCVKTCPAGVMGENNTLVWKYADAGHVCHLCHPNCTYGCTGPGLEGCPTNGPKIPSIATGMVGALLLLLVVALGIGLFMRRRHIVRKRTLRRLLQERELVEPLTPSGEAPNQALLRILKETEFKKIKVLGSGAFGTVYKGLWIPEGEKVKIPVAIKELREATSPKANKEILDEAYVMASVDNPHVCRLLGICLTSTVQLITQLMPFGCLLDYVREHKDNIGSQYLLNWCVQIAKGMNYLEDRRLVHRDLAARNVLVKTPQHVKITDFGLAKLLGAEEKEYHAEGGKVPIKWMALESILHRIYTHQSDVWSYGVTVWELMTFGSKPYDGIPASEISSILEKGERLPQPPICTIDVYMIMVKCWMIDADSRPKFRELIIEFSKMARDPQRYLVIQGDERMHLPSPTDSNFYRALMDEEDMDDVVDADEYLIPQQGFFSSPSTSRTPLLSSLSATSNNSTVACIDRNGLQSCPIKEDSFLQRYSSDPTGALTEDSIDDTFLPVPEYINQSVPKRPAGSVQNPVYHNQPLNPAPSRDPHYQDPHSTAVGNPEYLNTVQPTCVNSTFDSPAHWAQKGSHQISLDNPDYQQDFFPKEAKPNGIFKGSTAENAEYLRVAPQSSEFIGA
T3 sequence (P00533 with tags, fused parts or gaps INS763FQEA): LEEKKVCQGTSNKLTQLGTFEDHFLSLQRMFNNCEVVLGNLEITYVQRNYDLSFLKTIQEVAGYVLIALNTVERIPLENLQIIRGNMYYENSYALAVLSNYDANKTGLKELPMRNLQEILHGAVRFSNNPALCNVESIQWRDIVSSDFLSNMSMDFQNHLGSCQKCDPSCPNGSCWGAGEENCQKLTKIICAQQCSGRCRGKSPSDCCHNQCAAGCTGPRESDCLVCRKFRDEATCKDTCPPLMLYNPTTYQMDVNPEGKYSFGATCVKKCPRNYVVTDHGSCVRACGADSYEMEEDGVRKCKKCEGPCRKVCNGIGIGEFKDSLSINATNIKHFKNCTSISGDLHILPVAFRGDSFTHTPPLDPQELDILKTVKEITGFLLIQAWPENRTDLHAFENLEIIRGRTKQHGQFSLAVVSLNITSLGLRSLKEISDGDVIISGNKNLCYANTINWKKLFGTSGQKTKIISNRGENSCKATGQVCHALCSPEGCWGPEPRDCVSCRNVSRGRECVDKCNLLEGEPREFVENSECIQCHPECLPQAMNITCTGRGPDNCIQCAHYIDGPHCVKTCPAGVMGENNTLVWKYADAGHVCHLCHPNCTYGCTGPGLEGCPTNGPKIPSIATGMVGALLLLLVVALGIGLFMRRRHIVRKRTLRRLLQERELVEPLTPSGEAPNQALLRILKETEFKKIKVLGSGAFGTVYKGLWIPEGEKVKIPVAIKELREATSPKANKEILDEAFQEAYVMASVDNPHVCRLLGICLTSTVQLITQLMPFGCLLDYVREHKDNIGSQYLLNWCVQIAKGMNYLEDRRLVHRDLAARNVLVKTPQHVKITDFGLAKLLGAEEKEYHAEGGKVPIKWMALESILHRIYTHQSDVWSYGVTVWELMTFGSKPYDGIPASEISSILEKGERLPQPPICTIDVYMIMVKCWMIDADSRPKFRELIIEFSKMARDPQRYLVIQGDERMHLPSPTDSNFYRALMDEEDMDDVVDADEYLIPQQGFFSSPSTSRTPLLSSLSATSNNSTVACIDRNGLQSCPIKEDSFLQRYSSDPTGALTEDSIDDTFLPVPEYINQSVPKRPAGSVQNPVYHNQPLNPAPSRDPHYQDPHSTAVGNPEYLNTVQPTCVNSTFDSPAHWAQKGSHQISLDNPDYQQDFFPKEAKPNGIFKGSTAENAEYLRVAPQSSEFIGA
T2 sequence (P00533 with tags, fused parts or gaps INS769ASV): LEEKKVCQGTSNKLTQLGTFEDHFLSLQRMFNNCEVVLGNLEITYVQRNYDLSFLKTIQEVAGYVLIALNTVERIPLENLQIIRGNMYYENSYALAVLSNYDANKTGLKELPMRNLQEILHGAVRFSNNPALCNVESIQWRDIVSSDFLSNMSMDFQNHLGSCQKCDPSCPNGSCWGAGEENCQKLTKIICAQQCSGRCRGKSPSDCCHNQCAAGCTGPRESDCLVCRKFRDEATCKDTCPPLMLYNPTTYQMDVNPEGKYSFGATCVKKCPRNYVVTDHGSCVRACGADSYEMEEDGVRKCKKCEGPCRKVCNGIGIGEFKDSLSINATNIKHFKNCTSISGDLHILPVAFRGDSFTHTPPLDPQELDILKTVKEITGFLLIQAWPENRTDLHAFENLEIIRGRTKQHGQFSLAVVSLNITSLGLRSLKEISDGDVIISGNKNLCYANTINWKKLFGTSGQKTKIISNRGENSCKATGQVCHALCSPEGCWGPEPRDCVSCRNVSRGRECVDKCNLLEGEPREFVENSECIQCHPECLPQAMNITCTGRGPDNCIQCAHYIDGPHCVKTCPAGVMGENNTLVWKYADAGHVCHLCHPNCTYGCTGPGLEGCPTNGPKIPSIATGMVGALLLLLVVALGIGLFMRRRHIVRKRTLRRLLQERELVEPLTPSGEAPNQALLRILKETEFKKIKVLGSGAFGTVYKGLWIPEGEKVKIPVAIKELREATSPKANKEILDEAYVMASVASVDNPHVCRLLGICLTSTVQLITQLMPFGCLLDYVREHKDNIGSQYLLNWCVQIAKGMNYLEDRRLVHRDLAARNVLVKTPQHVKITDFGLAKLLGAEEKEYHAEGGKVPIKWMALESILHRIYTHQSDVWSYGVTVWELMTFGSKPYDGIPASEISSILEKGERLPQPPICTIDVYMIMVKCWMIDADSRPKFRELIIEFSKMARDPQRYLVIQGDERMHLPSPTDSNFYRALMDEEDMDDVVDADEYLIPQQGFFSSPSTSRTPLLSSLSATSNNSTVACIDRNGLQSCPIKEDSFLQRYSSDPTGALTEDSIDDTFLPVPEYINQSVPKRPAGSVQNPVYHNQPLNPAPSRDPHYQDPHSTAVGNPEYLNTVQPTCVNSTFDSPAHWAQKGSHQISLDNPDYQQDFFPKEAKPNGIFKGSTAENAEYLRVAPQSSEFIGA
T4 sequence (P00533 with tags, fused parts or gaps INS770SVD): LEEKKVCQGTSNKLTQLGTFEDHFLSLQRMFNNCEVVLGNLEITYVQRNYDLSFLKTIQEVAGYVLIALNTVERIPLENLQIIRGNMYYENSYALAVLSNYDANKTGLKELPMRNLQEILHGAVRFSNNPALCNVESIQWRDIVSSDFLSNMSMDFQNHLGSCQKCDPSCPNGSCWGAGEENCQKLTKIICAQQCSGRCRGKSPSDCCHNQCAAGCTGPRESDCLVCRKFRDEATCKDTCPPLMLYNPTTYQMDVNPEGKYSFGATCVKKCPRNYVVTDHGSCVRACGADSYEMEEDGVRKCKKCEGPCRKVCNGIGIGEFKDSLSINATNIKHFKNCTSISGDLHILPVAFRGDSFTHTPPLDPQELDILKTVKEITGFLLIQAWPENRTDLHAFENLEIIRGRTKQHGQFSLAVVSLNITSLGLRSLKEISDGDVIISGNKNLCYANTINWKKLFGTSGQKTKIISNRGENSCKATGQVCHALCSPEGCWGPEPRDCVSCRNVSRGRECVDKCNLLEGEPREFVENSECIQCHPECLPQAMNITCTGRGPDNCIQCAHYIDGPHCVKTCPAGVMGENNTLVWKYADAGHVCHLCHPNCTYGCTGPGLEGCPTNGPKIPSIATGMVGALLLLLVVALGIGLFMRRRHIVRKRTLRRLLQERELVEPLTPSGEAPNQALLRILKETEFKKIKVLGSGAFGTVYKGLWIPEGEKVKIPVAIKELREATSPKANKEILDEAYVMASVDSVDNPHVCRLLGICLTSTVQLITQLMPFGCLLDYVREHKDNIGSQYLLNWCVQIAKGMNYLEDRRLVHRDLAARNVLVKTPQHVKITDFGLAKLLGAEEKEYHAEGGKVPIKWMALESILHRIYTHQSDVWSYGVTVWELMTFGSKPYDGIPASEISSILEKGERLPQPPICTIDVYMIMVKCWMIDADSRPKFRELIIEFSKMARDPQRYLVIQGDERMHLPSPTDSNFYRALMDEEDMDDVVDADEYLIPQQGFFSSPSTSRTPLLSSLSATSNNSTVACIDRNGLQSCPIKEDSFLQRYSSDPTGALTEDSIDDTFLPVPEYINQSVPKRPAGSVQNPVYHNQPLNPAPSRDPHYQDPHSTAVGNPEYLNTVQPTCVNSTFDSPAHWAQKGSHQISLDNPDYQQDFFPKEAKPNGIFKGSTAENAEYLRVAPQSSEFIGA

With `COc1c(Cl)cccc1Nc1c(-c2ccncc2F)[nH]c2c1C(=O)NC[C@H]2CCN1CCOCC1` [compound 484, (7R)-3-[(3-chloro-2-methoxyphenyl)amino]-2-(3-fluoropyridin-4-yl)-7-[2-(morpholin-4-yl)ethyl]-1H,5H,6H,7H-pyrrolo[3,2-c]pyridin-4-one], the IC50 (at EGFR WT (Ba/F3 cells); in experiment [1]; in experiment [2]; in experiment [3]) was over 1000 nM throughout.

For the molecule `COc1c(Cl)cccc1Nc1c(-c2ccncc2F)[nH]c2c1C(=O)NC[C@@H]2CCN1CCOCC1` [compound 485, (7S)-3-[(3-chloro-2-methoxyphenyl)amino]-2-(3-fluoropyridin-4-yl)-7-[2-(morpholin-4-yl)ethyl]-1H,5H,6H,7H-pyrrolo[3,2-c]pyridin-4-one], the IC50 (at EGFR WT (Ba/F3 cells); in experiment [1]; in experiment [2]; in experiment [3]) was over 1000 nM in each case.

Turning to `COc1ncc2nccc(-c3[nH]c4c(c3Nc3cccc(Cl)c3F)C(=O)NCC4)c2n1` [Compound 799, 3-[(3-chloro-2-fluorophenyl)amino]-2-[2-methoxypyrido[3,2-d]pyrimidin-8-yl]-1H,5H,6H,7H-pyrrolo[3,2-c]pyridin-4-one], the IC50 is 100 to 1000 nM on EGFR WT (Ba/F3 cells), under 100 nM in experiment [1], under 100 nM in experiment [2] and under 100 nM in experiment [3].

For `COc1c(Cl)cccc1Nc1c(-c2ccnc(Nc3cnn(C4CCOCC4)c3)n2)[nH]c2c1C(=O)NCC2` [compound 517, 3-[(3-chloro-2-methoxyphenyl)amino]-2-(2-{[1-(oxan-4-yl)pyrazol-4-yl]amino}pyrimidin-4-yl)-1H,5H,6H,7H-pyrrolo[3,2-c]pyridin-4-one], the IC50 is 100 to 1000 nM at EGFR WT (Ba/F3 cells), under 100 nM in experiment [1], 100 to 1000 nM in experiment [2] and under 100 nM in experiment [3].

In the case of `COc1c(Cl)cccc1Nc1c(-c2ccncc2F)[nH]c2c1C(=O)NC[C@@H]2CCN(C)C` [compound 475, (7S)-3-[(3-chloro-2-methoxyphenyl)amino]-7-[2-(dimethylamino)ethyl]-2-(3-fluoropyridin-4-yl)-1H,5H,6H,7H-pyrrolo[3,2-c]pyridin-4-one], the IC50 (on EGFR WT (Ba/F3 cells); in experiment [1]; in experiment [2]; in experiment [3]) was over 1000 nM throughout.

For `COc1c(Cl)cccc1Nc1c(-c2ccnc3ccc(OCC4CC4)nc23)[nH]c2c1C(=O)NCC2` [compound 755, 3-[(3-chloro-2-methoxyphenyl)amino]-2-[6-(cyclopropylmethoxy)-1,5-naphthyridin-4-yl]-1H,5H,6H,7H-pyrrolo[3,2-c]pyridin-4-one], the IC50 on EGFR WT (Ba/F3 cells) is 100 to 1000 nM; in experiment [1], under 100 nM; in experiment [2] it was under 100 nM; in experiment [3], under 100 nM.

Turning to `COc1c(Cl)cccc1Nc1c(-c2ccncc2F)[nH]c2c1C(=O)NC[C@H]2CC(=O)N(C)C` [Compound 487], the IC50 is over 1000 nM on EGFR WT (Ba/F3 cells), 100 to 1000 nM in experiment [1], 100 to 1000 nM in experiment [2] and 100 to 1000 nM in experiment [3].

In the case of `COc1cc2nccc(-c3[nH]c4c(c3Nc3cccc(Cl)c3OC)C(=O)NCC4)c2nc1OCCN(C)C` [compound 501, 3-[(3-chloro-2-methoxyphenyl)amino]-2-{6-[2-(dimethylamino)ethoxy]-7-methoxy-1,5-naphthyridin-4-yl}-1H,5H,6H,7H-pyrrolo[3,2-c]pyridin-4-one], the IC50 was 100 to 1000 nM on EGFR WT (Ba/F3 cells), under 100 nM in experiment [1], under 100 nM in experiment [2] and under 100 nM in experiment [3].

`COc1c(Cl)cccc1Nc1c(-c2ccncc2F)[nH]c2c1C(=O)NC[C@H]2CCN(C)C` [compound 486, (7R)-3-[(3-chloro-2-methoxyphenyl)amino]-7-[2-(dimethylamino)ethyl]-2-(3-fluoropyridin-4-yl)-1H,5H,6H,7H-pyrrolo[3,2-c]pyridin-4-one]: the IC50 (at EGFR WT (Ba/F3 cells); in experiment [1]; in experiment [2]; in experiment [3]) was over 1000 nM throughout.

In the case of `COc1c(Cl)cccc1Nc1c(-c2ccnc3ccc(OCC4CCC4)nc23)[nH]c2c1C(=O)NCC2` [compound 756, 3-[(3-chloro-2-methoxyphenyl)amino]-2-[6-(cyclobutylmethoxy)-1,5-naphthyridin-4-yl]-1H,5H,6H,7H-pyrrolo[3,2-c]pyridin-4-one], the IC50 at EGFR WT (Ba/F3 cells) was 100 to 1000 nM; in experiment [1], under 100 nM; in experiment [2], 100 to 1000 nM; in experiment [3], 100 to 1000 nM.

For the molecule `COc1c(Cl)cccc1Nc1c(-c2ccnc(C(F)(F)F)n2)[nH]c2c1C(=O)NCC2` [compound 476, 3-[(3-chloro-2-methoxyphenyl)amino]-2-[2-(trifluoromethyl)pyrimidin-4-yl]-1H,5H,6H,7H-pyrrolo[3,2-c]pyridin-4-one], the IC50 (on EGFR WT (Ba/F3 cells); in experiment [1]; in experiment [2]; in experiment [3]) was over 1000 nM in each case.

As to `COc1c(Cl)cccc1Nc1c(-c2ccncc2F)[nH]c2c1C(=O)NC[C@H]2CC(C)(C)O` [compound 495, (7R)-3-[(3-chloro-2-methoxyphenyl)amino]-2-(3-fluoropyridin-4-yl)-7-(2-hydroxy-2-methylpropyl)-1H,5H,6H,7H-pyrrolo[3,2-c]pyridin-4-one], the IC50 on EGFR WT (Ba/F3 cells) is over 1000 nM; in experiment [1], under 100 nM; in experiment [2], under 100 nM; in experiment [3], under 100 nM.

Regarding `COc1ncc2nccc(-c3[nH]c4c(c3Nc3cccc(Cl)c3)C(=O)NCC4)c2n1` [Compound 798, 3-[(3-chlorophenyl)amino]-2-[2-methoxypyrido[3,2-d]pyrimidin-8-yl]-1H,5H,6H,7H-pyrrolo[3,2-c]pyridin-4-one], the IC50 was 100 to 1000 nM at EGFR WT (Ba/F3 cells), under 100 nM in experiment [1], under 100 nM in experiment [2] and under 100 nM in experiment [3].

On to `COCC[C@@H]1CNC(=O)c2c1[nH]c(-c1ccncc1F)c2Nc1cccc(F)c1OC(F)F` [Compound 470, (7R)-3-{[2-(difluoromethoxy)-3-fluorophenyl]amino}-2-(3-fluoropyridin-4-yl)-7-(2-methoxyethyl)-1H,5H,6H,7H-pyrrolo[3,2-c]pyridin-4-one], for which the IC50 is 100 to 1000 nM on EGFR WT (Ba/F3 cells), under 100 nM in experiment [1], 100 to 1000 nM in experiment [2] and under 100 nM in experiment [3].

Take `COc1c(Cl)cccc1Nc1c(-c2ccnc3ccc(OC4(C)CC4)nc23)[nH]c2c1C(=O)NC[C@@H]2C` (single isomer, unassigned) [Compound 775]: the IC50 (on EGFR WT (Ba/F3 cells); in experiment [1]; in experiment [2]; in experiment [3]) was under 100 nM throughout.

Consider `COCC[C@H]1CNC(=O)c2c1[nH]c(-c1ccncc1F)c2Nc1cccc(F)c1OC(F)F` [Compound 471, (7S)-3-{[2-(difluoromethoxy)-3-fluorophenyl]amino}-2-(3-fluoropyridin-4-yl)-7-(2-methoxyethyl)-1H,5H,6H,7H-pyrrolo[3,2-c]pyridin-4-one], for which the IC50 was over 1000 nM at EGFR WT (Ba/F3 cells), 100 to 1000 nM in experiment [1], 100 to 1000 nM in experiment [2] and 100 to 1000 nM in experiment [3].

For orientation: IC50 means the concentration needed to halve the response being measured.
